Assay results: ChEMBL document CHEMBL3045802, “Synthesis and in vitro antitumor activity of new quinoline, pyrimido[4,5-b]quinoline, [1,2,3]triazino[4,5-b]quinoline, and [1,2,4]triazolo[2,3:3,4]pyrimido[6,5-b]quinoline analogs” (2013)

Assays:
Assay type in all cases: functional
NCI-H522 = experiment: Cytotoxicity against Homo sapiens (human) NCI-H522 cells assessed as growth inhibition at 10 uM after 48 hr by coulter counter analysis; conditions: NCI-H522, 48 h, read-out: GI
K562 = experiment: Cytotoxicity against Homo sapiens (human) K562 cells assessed as growth inhibition at 10 uM after 48 hr by coulter counter analysis; conditions: K562, 48 h, read-out: GI
SNB-75 = experiment: Cytotoxicity against Homo sapiens (human) SNB75 cells assessed as growth inhibition at 10 uM after 48 hr by coulter counter analysis; conditions: SNB-75, 48 h, read-out: GI
SN12C = experiment: Cytotoxicity against Homo sapiens (human) SN12C cells assessed as growth inhibition at 10 uM after 48 hr by coulter counter analysis; conditions: read-out: GI
BT-549 = experiment: Cytotoxicity against Homo sapiens (human) BT549 cells assessed as growth inhibition at 10 uM after 48 hr by coulter counter analysis; conditions: BT-549, 48 h, read-out: GI
ACHN = experiment: Cytotoxicity against Homo sapiens (human) ACHN cells assessed as growth inhibition at 10 uM after 48 hr by coulter counter analysis; conditions: read-out: GI
MDA-MB-468 = experiment: Cytotoxicity against Homo sapiens (human) MDA-MB-468 cells assessed as growth inhibition at 10 uM after 48 hr by coulter counter analysis; conditions: MDA-MB-468, 48 h, read-out: GI
SK-OV-3 = experiment: Cytotoxicity against Homo sapiens (human) SKOV3 cells assessed as growth inhibition at 10 uM after 48 hr by coulter counter analysis; conditions: SK-OV-3, 48 h, read-out: GI
KM12 = experiment: Cytotoxicity against Homo sapiens (human) KM12 cells assessed as growth inhibition at 10 uM after 48 hr by coulter counter analysis; conditions: KM12, 48 h, read-out: GI
EKVX = experiment: Cytotoxicity against Homo sapiens (human) EKVX cells assessed as growth inhibition at 10 uM after 48 hr by coulter counter analysis; conditions: read-out: GI
A549 = experiment: Cytotoxicity against Homo sapiens (human) A549 cells assessed as growth inhibition at 10 uM after 48 hr by coulter counter analysis; conditions: A549, 48 h, read-out: GI
NCI-H460 = experiment: Cytotoxicity against Homo sapiens (human) NCI-H460 cells assessed as growth inhibition at 10 uM after 48 hr by coulter counter analysis; conditions: NCI-H460, 48 h, read-out: GI
NCI-H23 = experiment: Cytotoxicity against Homo sapiens (human) NCI-H23 cells assessed as growth inhibition at 10 uM after 48 hr by coulter counter analysis; conditions: NCI-H23, 48 h, read-out: GI
DU-145 = experiment: Cytotoxicity against Homo sapiens (human) DU145 cells assessed as growth inhibition at 10 uM after 48 hr by coulter counter analysis; conditions: DU-145, 48 h, read-out: GI
Malme-3M = experiment: Cytotoxicity against Homo sapiens (human) MALME-3M cells assessed as growth inhibition at 10 uM after 48 hr by coulter counter analysis; conditions: read-out: GI
MDA-MB-231 = experiment: Cytotoxicity against Homo sapiens (human) MDA-MB-231 cells assessed as growth inhibition at 10 uM after 48 hr by coulter counter analysis; conditions: MDA-MB-231, 48 h, read-out: GI
SW-620 = experiment: Cytotoxicity against Homo sapiens (human) SW620 cells assessed as growth inhibition at 10 uM after 48 hr by coulter counter analysis; conditions: SW-620, 48 h, read-out: GI
Hs-578T = experiment: Cytotoxicity against Homo sapiens (human) Hs578T cells assessed as growth inhibition at 10 uM after 48 hr by coulter counter analysis; conditions: read-out: GI
TK-10 = experiment: Cytotoxicity against Homo sapiens (human) TK10 cells assessed as growth inhibition at 10 uM after 48 hr by coulter counter analysis; conditions: TK-10, 48 h, read-out: GI
UACC-62 = experiment: Cytotoxicity against Homo sapiens (human) UACC62 cells assessed as growth inhibition at 10 uM after 48 hr by coulter counter analysis; conditions: UACC-62, 48 h, read-out: GI
MOLT-4 = experiment: Cytotoxicity against Homo sapiens (human) MOLT4 cells assessed as growth inhibition at 10 uM after 48 hr by coulter counter analysis; conditions: MOLT-4, 48 h, read-out: GI
HCT-116 = experiment: Cytotoxicity against Homo sapiens (human) HCT116 cells assessed as growth inhibition at 10 uM after 48 hr by coulter counter analysis; conditions: HCT-116, 48 h, read-out: GI
LOX IMVI = experiment: Cytotoxicity against Homo sapiens (human) LOXIMVI cells assessed as growth inhibition at 10 uM after 48 hr by coulter counter analysis; conditions: read-out: GI
CCRF-CEM = experiment: Cytotoxicity against Homo sapiens (human) CCRF-CEM cells assessed as growth inhibition at 10 uM after 48 hr by coulter counter analysis; conditions: read-out: GI
SK-MEL-5 = experiment: Cytotoxicity against Homo sapiens (human) SK-MEL-5 cells assessed as growth inhibition at 10 uM after 48 hr by coulter counter analysis; conditions: SK-MEL-5, 48 h, read-out: GI

SMILES | inhibition of growth at 10 µM (NCI-H522) | inhibition of growth at 10 µM (K562) | inhibition of growth at 10 µM (SNB-75) | inhibition of growth at 10 µM (SN12C) | inhibition of growth at 10 µM (BT-549) | inhibition of growth at 10 µM (ACHN) | inhibition of growth at 10 µM (MDA-MB-468) | inhibition of growth at 10 µM (SK-OV-3) | inhibition of growth at 10 µM (KM12) | inhibition of growth at 10 µM (EKVX) | inhibition of growth at 10 µM (A549) | inhibition of growth at 10 µM (NCI-H460) | inhibition of growth at 10 µM (NCI-H23) | inhibition of growth at 10 µM (DU-145) | inhibition of growth at 10 µM (Malme-3M) | inhibition of growth at 10 µM (MDA-MB-231) | inhibition of growth at 10 µM (SW-620) | inhibition of growth at 10 µM (Hs-578T) | inhibition of growth at 10 µM (TK-10) | inhibition of growth at 10 µM (UACC-62) | other results
COc1ccc(C2C3=C(CCCC3)Nc3nn[nH]c(=O)c32)cc1OC (stereo not given) | < 10% | < 10% | 28.3% | 10.8% | < 10% | 16% | 21.1% | < 10% | < 10% | < 10% | < 10% | < 10% | < 10% | < 10% | < 10% | < 10% | < 10% | < 10% | < 10% | 14.3% | inhibition of growth at 10 µM (MOLT-4): < 10%; inhibition of growth at 10 µM (HCT-116): < 10%; inhibition of growth at 10 µM (LOX IMVI): < 10%; inhibition of growth at 10 µM (CCRF-CEM): < 10%; inhibition of growth at 10 µM (SK-MEL-5): 10.9%
COc1ccc(C2C3=C(CCCC3)Nc3[nH]c(=S)nc(NC(N)=S)c32)cc1OC (stereo not given) | 43.4% | 17.6% | 20.3% | < 10% | < 10% | 11.4% | 14.2% | 18.6% | 21.3% | < 10% | < 10% | < 10% | 15.3% | < 10% | 10.9% | 17.4% | < 10% | 17.7% | < 10% | < 10% | inhibition of growth at 10 µM (MOLT-4): < 10%; inhibition of growth at 10 µM (HCT-116): < 10%; inhibition of growth at 10 µM (LOX IMVI): 16.1%; inhibition of growth at 10 µM (CCRF-CEM): < 10%; inhibition of growth at 10 µM (SK-MEL-5): 25.5%
COc1ccc(C2C3=C(CCCC3)Nc3nc(CC#N)[nH]c(=O)c32)cc1OC (stereo not given) | < 10% | < 10% | < 10% | < 10% | < 10% | < 10% | < 10% | < 10% | < 10% | < 10% | < 10% | < 10% | < 10% | < 10% | < 10% | < 10% | < 10% | < 10% | < 10% | < 10% | inhibition of growth at 10 µM (MOLT-4): < 10%; inhibition of growth at 10 µM (HCT-116): < 10%; inhibition of growth at 10 µM (LOX IMVI): < 10%; inhibition of growth at 10 µM (CCRF-CEM): < 10%; inhibition of growth at 10 µM (SK-MEL-5): < 10%
O=c1[nH]c(-c2ccccc2)nc2c1C(c1ccc(Cl)cc1)C1=C(CCCC1)N2 (stereo not given) | 20.2% | 11.2% | 15.5% | < 10% | < 10% | < 10% | < 10% | < 10% | < 10% | < 10% | < 10% | < 10% | < 10% | < 10% | < 10% | < 10% | < 10% | < 10% | < 10% | < 10% | inhibition of growth at 10 µM (MOLT-4): 13.6%; inhibition of growth at 10 µM (HCT-116): < 10%; inhibition of growth at 10 µM (LOX IMVI): 11.2%; inhibition of growth at 10 µM (CCRF-CEM): < 10%; inhibition of growth at 10 µM (SK-MEL-5): 17.8%
COc1ccc(C2C3=C(CCCC3)Nc3nc(-c4ccccc4)[nH]c(=O)c32)cc1OC (stereo not given) | 14.5% | < 10% | 28.4% | 10.8% | < 10% | 18% | 21.2% | < 10% | < 10% | < 10% | < 10% | < 10% | < 10% | < 10% | < 10% | < 10% | < 10% | < 10% | < 10% | 14.4% | inhibition of growth at 10 µM (MOLT-4): < 10%; inhibition of growth at 10 µM (HCT-116): < 10%; inhibition of growth at 10 µM (LOX IMVI): < 10%; inhibition of growth at 10 µM (CCRF-CEM): < 10%; inhibition of growth at 10 µM (SK-MEL-5): 10.9%
